pEC50, pIC50: −log10 of the molar value.
Key:
HBV = experiment: Determination of HBV DNA from the supernatants of HepAD38 cells (anti-HBV activity); format: cell-based, hepatitis B virus; conditions: Hepatitis B virus, 144 h; HBV DNA in HepAD38 supernatant at day 6; read-out: Cell Activity (EC50)
Protocol: Determination of HBV DNA from the Supernatants of HepAD38 Cells
The anti-HBV activity was analysed in the stable transfected cell line HepAD38, which has been described to secrete high levels of HBV virion particles (Ladner et al., 1997). In brief, HepAD38 cells were cultured at 37° C. at 5% CO2 and 95% humidity in 200 μl maintenance medium, which was Dulbecco's modified Eagle's medium/Nutrient Mixture F-12 (Gibco, Karlsruhe), 10% fetal bovine serum (PAN Biotech Aidenbach) supplemented with 50 μg/ml penicillin/streptomycin (Gibco, Karlsruhe), 2 mM L-glutamine (PAN Biotech, Aidenbach), 400 μg/ml G418 (AppliChem, Darmstadt) and 0.3 μg/ml tetracycline. Cells were subcultured once a week in a 1:5 ratio, but were usually not passaged more than ten times. For the assay 60,000 cells were seeded in maintenance medium without any tetracycline into each well of a 96-well plate and treated with serial half-log dilutions of test compound. To minimize edge effects the outer 36 wells of the plate were not used but were filled with assay medium. On each assay plate six wells for the virus control (untreated HepAD38 cells) and six wells for the cell control (HepAD38 cells treated with 0.3 μg/ml tetracycline) were allocated, respectively. In addition, one plate set with reference inhibitors like BAY 41-4109, entecavir, and lamivudine instead of screening compounds were prepared in each experiment. In general, experiments were performed thrice in triplicates. At day 6 HBV DNA from 100 μl filtrated cell culture supernatant (AcroPrep Advance 96 Filter Plate, […] Supor membran, PALL GmbH, Dreieich) was automatically purified on the MagNa Pure LC instrument using the MagNA Pure 96 DNA and Viral NA Small Volume Kit (Roche Diagnostics, Mannheim) according to the instructions of the manufacturer. EC50 values were calculated from relative copy numbers of HBV DNA. In brief, 5 μl of the 100 μl eluate containing HBV DNA were subjected to PCR LC480 Probes Master Kit (Roche) together with 1 μM antisense primer […], 0.5 μM sense primer […], 0.3 μM hybprobes […]-FL and LC640-[…]-PH (TIBMolBiol, Berlin) to a final volume of 12.5 μl. The PCR was performed on the Light Cycler 480 real time system (Roche Diagnostics, Mannheim) using the following protocol: Pre-incubation for 1 min at 95° C., amplification: 40 cycles×(10 sec at 95° C., 50 sec at 60° C., 1 sec at 70° C.), cooling for 10 sec at 40° C. Viral load was quantitated against known standards using HBV plasmid DNA of pCH-9/3091 (Nassal et al., 1990, Cell 63: 1357-1363) and the LightCycler 480 SW 1.5 software (Roche Diagnostics, Mannheim) and EC50 values were calculated using non-linear regression with GraphPad Prism 6 (GraphPad Software Inc., La Jolla, USA).

HBV core protein = HBV core protein (UniProt P03146); format: biochemical; conditions: read-out: Assembly Activity (IC50); BODIPY-FL labelled core protein, assembly started with NaCl, read after 6 min
Chain of HBV core protein (P03146 whole entry, looked up): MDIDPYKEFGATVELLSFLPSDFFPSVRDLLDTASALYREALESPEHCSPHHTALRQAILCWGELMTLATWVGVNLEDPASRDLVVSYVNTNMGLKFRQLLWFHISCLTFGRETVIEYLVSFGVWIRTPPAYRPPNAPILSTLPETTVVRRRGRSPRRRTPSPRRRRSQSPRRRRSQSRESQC
Protocol: Biochemical Capsid Assembly Assay
The screening for assembly effector activity was done based on a fluorescence quenching assay published by Zlotnick et al. (2007). The C-terminal truncated core protein containing 149 amino acids of the N-terminal assembly domain was fused to a unique cysteine residue at position 150 and was expressed in E. coli using the pET expression system (Merck Chemicals, Darmstadt). Purification of core dimer protein was performed using a sequence of size exclusion chromatography steps. In brief, the cell pellet from 1 L BL21 (DE3) Rosetta2 culture expressing the coding sequence of core protein cloned NdeI/XhoI into expression plasmid pET21b was treated for 1 h on ice with a native lysis buffer (Qproteome Bacterial Protein Prep Kit; Qiagen, Hilden). After a centrifugation step the supernatant was precipitated during 2 h stirring on ice with 0.23 g/ml of solid ammonium sulfate. Following further centrifugation the resulting pellet was resolved in buffer A (100 mM Tris, pH 7.5; 100 mM NaCl; 2 mM DTT) and was subsequently loaded onto a buffer A equilibrated CaptoCore 700 column (GE HealthCare, Frankfurt). The column flow through containing the assembled HBV capsid was dialyzed against buffer N (50 mM NaHCO3 pH 9.6; 5 mM DTT) before urea was added to a final concentration of 3M to dissociate the capsid into core dimers for 1.5 h on ice. The protein solution was then loaded onto a 1 L Sephacryl S300 column. After elution with buffer N core dimer containing fractions were identified by SDS-PAGE and subsequently pooled and dialyzed against 50 mM HEPES pH 7.5; 5 mM DTT. To improve the assembly capacity of the purified core dimers a second round of assembly and disassembly starting with the addition of 5 M NaCl and including the size exclusion chromatography steps described above was performed. From the last chromatography step core dimer containing fractions were pooled and stored in aliquots at concentrations between 1.5 to 2.0 mg/ml at −80° C.
Immediately before labelling the core protein was reduced by adding freshly prepared DTT in a final concentration of 20 mM. After 40 min incubation on ice storage buffer and DTT was removed using a Sephadex G-25 column (GE HealthCare, Frankfurt) and 50 mM HEPES, pH 7.5. For labelling 1.6 mg/ml core protein was incubated at 4° C. and darkness overnight with BODIPY-FL maleimide (Invitrogen, Karlsruhe) in a final concentration of 1 mM. After labelling the free dye was removed by an additional desalting step using a Sephadex G-25 column. Labelled core dimers were stored in aliquots at 4° C. In the dimeric state the fluorescence signal of the labelled core protein is high and is quenched during the assembly of the core dimers to high molecular capsid structures. The screening assay was performed in black 384 well microtiter plates in a total assay volume of 10 μl using 50 mM HEPES pH 7.5 and 1.0 to 2.0 μM labelled core protein. Each screening compound was added in 8 different concentrations using a 0.5 log-unit serial dilution starting at a final concentration of 100 μM, 31.6 μM or 10 μM. In any case the DMSO concentration over the entire microtiter plate was 0.5%. The assembly reaction was started by the injection of NaCl to a final concentration of […] which induces the assembly process to approximately 25% of the maximal quenched signal. 6 min after starting the reaction the fluorescence signal was measured using a Clariostar plate reader (BMG Labtech, Ortenberg) with an excitation of 477 nm and an emission of 525 nm. As 100% and 0% assembly control HEPES buffer containing 2.5 M and 0 M NaCl was used. Experiments were performed thrice in triplicates. EC50 values were calculated by non-linear regression analysis using the Graph Pad Prism 6 software (GraphPad Software, La Jolla, USA).

Row | Compound | pEC50 (HBV) | pIC50 (HBV core protein)
1 | CC(O)c1cccc2[nH]c(C(=O)N3CCc4nc(NCC5CCOC5)sc4C3)cc12 (stereo not drawn) [Example 244, 1-[2-(2-{[(oxolan-3-yl)methyl]amino}-4H,5H,6H,7H-[1,3]thiazolo[5,4-c]pyridine-5-carbonyl)-1H-indol-4-yl]ethan-1-ol] | > 6.00 | > 4.00
2 | CC(C)(O)CNc1nc2c(s1)CN(C(=O)c1cc3ccccc3[nH]1)CC2 [Example 95, 1-{[5-(1H-indole-2-carbonyl)-4H,5H,6H,7H-[1,3]thiazolo[5,4-c]pyridin-2-yl]amino}-2-methylpropan-2-ol] | > 6.00 | > 5.30
3 | CC(F)(F)c1cc(F)cc2[nH]c(C(=O)N3CCc4nc(NCC5(O)CCC5)sc4C3)cc12 [Example 371, 1-[({5-[4-(1,1-difluoroethyl)-6-fluoro-1H-indole-2-carbonyl]-4H,5H,6H,7H-[1,3]thiazolo[5,4-c]pyridin-2-yl}amino)methyl]cyclobutan-1-ol] | > 6.00 | > 5.30
4 | O=C(c1cc2c(CO)cccc2[nH]1)N1CCc2nc(NCC3(O)CCC3)sc2C1 [Example 367, 1-[({5-[4-(hydroxymethyl)-1H-indole-2-carbonyl]-4H,5H,6H,7H-[1,3]thiazolo[5,4-c]pyridin-2-yl}amino)methyl]cyclobutan-1-ol] | > 6.00 | > 4.00
5 | O=C(c1cc2c(F)cc(F)cc2[nH]1)N1CCc2nc(NCC3CCOC3)sc2C1 (stereo not drawn) [Example 119, 5-(4,6-difluoro-1H-indole-2-carbonyl)-N-[(oxolan-3-yl)methyl]-4H,5H,6H,7H-[1,3]thiazolo[5,4-c]pyridin-2-amine] | > 6.00 | > 5.30
6 | COCC1(CNc2nc3c(s2)CN(C(=O)c2cc4ccccc4[nH]2)CC3)CC1 [Example 340, 5-(1H-indole-2-carbonyl)-N-{[1-(methoxymethyl)cyclopropyl]methyl}-4H,5H,6H,7H-[1,3]thiazolo[5,4-c]pyridin-2-amine] | > 6.00 | > 5.30
7 | O=C(c1cc2ccccc2[nH]1)N1CCc2nc(NCC(CO)C3CC3)sc2C1 (stereo not drawn) [Example 284, 2-cyclopropyl-3-{[5-(1H-indole-2-carbonyl)-4H,5H,6H,7H-[1,3]thiazolo[5,4-c]pyridin-2-yl]amino}propan-1-ol] | > 6.00 | > 5.30
8 | CC(O)c1cc(F)cc2[nH]c(C(=O)N3CCc4nc(NCC5CCOC5)sc4C3)cc12 (stereo not drawn) [Example 258, 1-[6-fluoro-2-(2-{[(oxolan-3-yl)methyl]amino}-4H,5H,6H,7H-[1,3]thiazolo[5,4-c]pyridine-5-carbonyl)-1H-indol-4-yl]ethan-1-ol] | 5.00 to 6.00 | > 4.00
9 | COC1COCCC1Nc1nc2c(s1)CN(C(=O)c1cc3ccccc3[nH]1)CC2 (stereo not drawn) [Example 231, 5-(1H-indole-2-carbonyl)-N-(3-methoxyoxan-4-yl)-4H,5H,6H,7H-[1,3]thiazolo[5,4-c]pyridin-2-amine] | > 6.00 | 5.00 to 5.30
10 | O=C(c1cc2ccccc2[nH]1)N1CCc2nc(CNC3CCOC3)sc2C1 (stereo not drawn) [Example 40, N-{[5-(1H-indole-2-carbonyl)-4H,5H,6H,7H-[1,3]thiazolo[5,4-c]pyridin-2-yl]methyl}oxolan-3-amine] | 5.00 to 6.00 | 5.00 to 5.30
11 | O=C(c1cc2ccccc2[nH]1)N1CCc2nc(N[C@H]3CC[C@@H](O)CC3)sc2C1 [Example 45, (1s,4s)-4-{[5-(1H-indole-2-carbonyl)-4H,5H,6H,7H-[1,3]thiazolo[5,4-c]pyridin-2-yl]amino}cyclohexan-1-ol] | > 6.00 | > 5.30
12 | Nc1nc2c(s1)CN(C(=O)c1cc3ccc(Cl)c(Cl)c3[nH]1)CC2 [Example 148, 5-(6,7-dichloro-1H-indole-2-carbonyl)-4H,5H,6H,7H-[1,3]thiazolo[5,4-c]pyridin-2-amine] | 5.00 to 6.00 | > 5.30
13 | Cc1nc2c(s1)CN(C(=O)c1cc3cc(Cl)ccc3[nH]1)CC2 [Example 161, 5-chloro-2-{2-methyl-4H,5H,6H,7H-[1,3]thiazolo[5,4-c]pyridine-5-carbonyl}-1H-indole] | 5.00 to 6.00 | 5.00 to 5.30
14 | CCc1cccc2[nH]c(C(=O)N3CCc4nc(NCC5(O)CCC5)sc4C3)cc12 [Example 338, 1-({[5-(4-ethyl-1H-indole-2-carbonyl)-4H,5H,6H,7H-[1,3]thiazolo[5,4-c]pyridin-2-yl]amino}methyl)cyclobutan-1-ol] | > 6.00 | > 5.30
15 | CC1(C)CC1C(=O)Nc1nc2c(s1)CN(C(=O)c1cc3ccccc3[nH]1)CC2 (stereo not drawn) [Example 267, N-[5-(1H-indole-2-carbonyl)-4H,5H,6H,7H-[1,3]thiazolo[5,4-c]pyridin-2-yl]-2,2-dimethylcyclopropane-1-carboxamide] | > 6.00 | 5.00 to 5.30
16 | Cc1nc2c(s1)CN(C(=O)c1cc3c(Cl)cc(F)cc3[nH]1)CC2 [Example 187, 4-chloro-6-fluoro-2-{2-methyl-4H,5H,6H,7H-[1,3]thiazolo[5,4-c]pyridine-5-carbonyl}-1H-indole] | > 6.00 | > 5.30
17 | O=C(c1cc2ccccc2[nH]1)N1CCc2nc(NCC3(CO)CCC3)sc2C1 [Example 27, [1-({[5-(1H-indole-2-carbonyl)-4H,5H,6H,7H-[1,3]thiazolo[5,4-c]pyridin-2-yl]amino}methyl)cyclobutyl]methanol] | > 6.00 | > 5.30
18 | Nc1nc2c(s1)CN(C(=O)c1cc3ccc(C(F)(F)F)cc3[nH]1)CC2 [Example 199, 5-[6-(trifluoromethyl)-1H-indole-2-carbonyl]-4H,5H,6H,7H-[1,3]thiazolo[5,4-c]pyridin-2-amine] | > 6.00 | > 5.30
